Results reported in US20100009997A1, “METHOD OF TREATING A METABOLIC OR NEUROPSYCHIARTY DISORDER WITH A BH4 DERIVATIVE PRODRUG” (BIOMARIN PHARMACEUTICAL INC., priority 2007, published 2010).

Key:
[1] = design: species or system cynomolgus monkeys; settings: female, cynomolgus monkey, in vivo, po, 10 mg/kg
Procedure: The example allows comparison of the pharmacokinetics of sapropterin and the BH4 derivative after a single oral administration in groups of cynomolgus monkeys.
A single dose of sapropterin (10 mg/kg) was administered orally to a first group of female cynomolgus monkeys (3/group) under fasting conditions. A single dose of Compound I (10 mg/kg) was administered orally to second group of female cynomolgus monkeys (3/group) under fasting conditions.
The bioavailability (F) following a 10 mg/kg oral administration to female monkeys was about 9%.

[2] = design: species or system Sprague Dawley rats; settings: male, Sprague Dawley, rat, in vivo, po, 100 mg/kg
Procedure: This example allows for comparison of the pharmacokinetics of the BH4 derivative versus that of BH4 following single oral administration in rats.
Single doses of BH4 (10 and 100 mg/kg) were administered orally to a […] of male Sprague Dawley rats (6 weeks old) under fasting conditions. Single doses of Compound I were administered orally to a […] of male Sprague Dawley rats (6 weeks old) under fasting conditions.
With respect to the administered BH4, the maximum total biopterin concentrations in plasma 2 hrs and 1 hr post-dosing were 108 ng/ml (i.e., about 3 fold the endogenous level) and 1227 ng/ml (i.e., about 30 fold the endogenous level), respectively. […] The ratio of reduced biopterin to total biopterins in plasma (i.e., the reduced-form ratio) was relatively static (73%-96%).

| SMILES | bioavailability (F) [1] | plasma elimination half-life of biopterin [1] | biopterin elimination half-life (t1/2) [2] |
| --- | --- | --- | --- |
| C[C@H](O)[C@H](O)[C@H]1CNc2nc(N)[nH]c(=O)c2N1 [sapropterin] | about 9% | approximately 1.4 hrs |  |
| C[C@H](O)[C@H](O)[C@H]1CNc2nc(N)[nH]c(=O)c2N1 [BH4, (6R)-5,6,7,8-tetrahydro-L-biopterin] |  |  | about 1.1 hr |
